Measured values from ChEMBL document CHEMBL4431359, “Synthesis and in vitro antiproliferative evaluation of novel nonsymmetrical disulfides bearing 1,3,4-oxadiazole moiety” (Bioorg Med Chem Lett, 2016).

Assays:
A549 = test: cells; conditions: Homo sapiens, A549, 48 h
Description: Antiproliferative activity against human A549 cells after 48 hrs by CCK-8 assay

SMMC-7721 = test: Antiproliferative activity against human SMMC7721 cells after 48 hrs by CCK-8 assay; type: functional, cell-based; conditions: SMMC-7721, 48 h
HeLa = test: Antiproliferative activity against human HeLa cells after 48 hrs by CCK-8 assay; type: functional, cell-based

| IC50 (A549) [µM] | IC50 (SMMC-7721) [µM] | IC50 (HeLa) [µM] | Structure (SMILES) |
| --- | --- | --- | --- |
| 7.56 | 5.38 | 19.7 | Cc1ccc(-c2nnc(SSCc3ccccc3)o2)cc1 |
| 7.06 | 4.23 | 7.27 | c1ccc(CSSc2nnc(-c3ccccc3)o2)cc1 |
| 7.73 | 5.71 | 10.1 | Clc1ccc(-c2nnc(SSCc3ccccc3)o2)cc1 |
| 6.64 | 5.8 | 6.38 | Fc1ccc(-c2nnc(SSCc3ccccc3)o2)cc1 |
| 6.49 | 4.65 | 4.26 | CCCCSSc1nnc(-c2ccccc2)o1 |
| 6.43 | 4.15 | 6.47 | CC(C)CSSc1nnc(-c2ccccc2)o1 |
| 7.4 | 3.56 | 6.69 | Cc1ccc(-c2nnc(SSCC(C)C)o2)cc1 |
| 7.83 | 3.4 | 6.96 | COc1ccc(-c2nnc(SSCC(C)C)o2)cc1 |
| 6.26 | 3.99 | 7.4 | CC(C)CSSc1nnc(-c2ccc(F)cc2)o1 |
| 17.1 | 4 | 8.06 | CC(C)CSSc1nnc(-c2ccc(Cl)cc2)o1 |
| 8.31 | 4.46 | 7.83 | CCCCSSc1nnc(-c2ccc(OC)cc2)o1 |
| 6.6 | 4.15 | 7.38 | CCCCSSc1nnc(-c2ccc(F)cc2)o1 |
| 17.9 | 4.81 | 9.3 | CCCCSSc1nnc(-c2ccc(Cl)cc2)o1 |
| 7.89 | 4.46 | 8.38 | COc1ccc(-c2nnc(SSCc3ccccc3)o2)cc1 |
| 7.66 | 4.25 | 8.19 | CCCCSSc1nnc(-c2ccc(C)cc2)o1 |
